Laboratory results reported in BindingDB's records for doi:10.1128/AAC.37.4.810 (National Cancer Institute-Bethesda, 1993).
pKi: −log10 of the molar value.

target: T1, Dimer of Gag-Pol polyprotein [489-587] (Human immunodeficiency virus 1, UniProt P12497); test: Protease Inhibition Assay; conditions: pH 6.2; 37 °C
T1 construct: 489-587
Protocol: Inhibition constants were determined by a fluorometric assay with the fluorogenic substrate Arg-Glu(EDANS)-Ser-Gln-Asn-Tyr-Pro-Ile-Val-Lys(DABCYL)-Arg. The data were analyzed with the mathematical model for tight-binding inhibitors in which the concentration of inhibitor is less than or equal to the enzyme concentration. The data were fitted by nonlinear regression analysis to the equation with program Enzfitter (version 1.05).

| SMILES | pKi |
| --- | --- |
| CC(C)(C)NC(=O)[C@H]1N(C(=O)[C@@H](O)[C@H](Cc2ccccc2)NC(=O)[C@H](CC(N)=O)NC(=O)COc2cccc3ccccc23)CSC1(C)C [Noa-Asn-Apns-Dmt-NH-tBu] | 11.17 |
| CSC[C@H](NC(=O)COc1cccc2cnccc12)C(=O)N[C@@H](Cc1ccccc1)[C@H](O)C(=O)N1CSC[C@H]1C(=O)NC(C)(C)C [Kynostatin 272] | 11.26 |
| CSC[C@H](NC(=O)COc1cccc2cnccc12)C(=O)N[C@@H](Cc1ccccc1)[C@H](O)C(=O)N1CSC(C)(C)[C@H]1C(=O)NC(C)(C)C | 11.64 |
